Consider 26 compounds from PubChem BioAssay (NCI).

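Assay format: 96-well plates, 48-hour exposure. TGI is the concentration that stops growth completely.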

The subject of the first assay is TK-10 renal. Description: inhibition of tumour cell growth, NCI panel, 48 h.
As to `COc1ccc(-c2nc(SCC(=O)N/N=C/c3ccc(N(C)C)cc3)[nH]c2-c2ccc(OC)cc2)cc1`, the TGI was > 100 µM.

`CC1=C[C@@H]2Cc3nc4cc(Cl)ccc4c(N)c3[C@H](C1)C2`: the TGI was 19.5 µM.

For `O=[N+]([O-])C(/C=C(\Cl)n1nnc2ccccc21)=C(/Cl)n1nnc2ccccc21`, the TGI was > 100 µM.

As for `c1c[nH]c(-c2ccc(-c3ccc[nH]3)c3nsnc23)c1`, the TGI was > 100 µM.

On to `CSC(=S)N(C)C`, for which the TGI was > 100 µM.

Turning to `COc1ccc2c(c1)OCC1Cc3ccccc3OC21` (stereo not drawn), the TGI was > 100 µM.

On to `CCOC(=O)c1c(C)nc2c3ccccc3c(C#N)c(C)n12`, for which the TGI is > 100 µM.

In the case of `CCCCC(C(=O)NCCNC(=O)CCC(=O)N(C)O)C(=O)NCCNC(=O)CCC(=O)N(C)O`, the TGI is > 100 µM.

Consider `O=C(CC(C(=O)c1ccsc1)c1ccc2c(c1)OCO2)c1ccccc1` (stereo not drawn), for which the TGI was > 100 µM.

On to `CC1(C)C2CCC1(C)[C@H](n1c(=O)n([C@@H]3CC4CCC3(C)C4(C)C)c(=O)n([C@@H]3CC4CCC3(C)C4(C)C)c1=O)C2`, for which the TGI is > 100 µM.

Take `CSc1nsc(-c2ccccc2)[s+]1`: the TGI is > 100 µM.

As to `CC(=N/N=C/c1ccccn1)/C(C)=N/N=C(C)/C(C)=N/N=C(C)/C(C)=N/N=C(C)/C(C)=N\N=C\c1ccccn1`, the TGI is > 100 µM.

In the next assay the test system is UACC-62 melanoma. Description: inhibition of tumour cell growth, NCI panel, 48 h.
`CC1(C)CCCC2OC2CCC(C)(C)C1=O` (stereo not drawn): the TGI is > 100 µM.

Consider `O=C1NCC2(CCN(CCCC3(c4ccc(F)cc4)OCCO3)CC2)N1c1ccccc1`, for which the TGI was > 100 µM.

Consider `COc1ccc2c(c1)/C(=C\c1c(Cl)nc3sc(C)cn13)C(=O)N2`, for which the TGI is 16.4 µM.

With `O=C1c2ccccc2-c2c1c(-c1ccc(F)cc1)nc1ccc3ccccc3c21`, the TGI is > 100 µM.

For the compound `O=C(/C=C/c1ccc2c(c1)OCO2)CC(=O)C(=O)c1c[nH]c2ccccc12`, the TGI is > 100 µM.

As for `O=C(Nc1nccs1)c1c(O)nc2sccn2c1=O`, the TGI was > 10 µM.

`O=c1[nH]c(=O)n(C2OC(CO)C(O)C2O)c2nc(-c3ccc(-c4ccccc4)cc3)cnc12` (stereo not drawn): the TGI is > 100 µM.

In turn, `O=C1NCCN1/N=C/c1c(Cl)n(-c2ccccc2)c2ccccc12` gave a TGI of 41.5 µM.

In the case of `CCCCCCOc1ccc(C(=O)NOC)cc1`, the TGI is > 100 µM.

With `Cc1c(S(=O)(=O)c2ccccc2)c(N)n(CCN(C)C)c1C`, the TGI was > 100 µM.

Turning to `N=C(N)SCc1ccc2c(c1)Sc1ccccc1O2`, the TGI came to 19.7 µM.

`CC(=O)Nc1nc(C#N)[nH]c1C#N`: the TGI is > 100 µM.

As to `CN(C)c1ccc(C(=N/N=C2\C(=O)Nc3ccccc32)c2ccc(N(C)C)cc2)cc1`, the TGI was found to be 33.5 µM.

`COc1ccc(-c2nc(SCC(=O)N/N=C/c3ccc(N(C)C)cc3)[nH]c2-c2ccc(OC)cc2)cc1`: the TGI was > 100 µM.

Regarding `CC1=C[C@@H]2Cc3nc4cc(Cl)ccc4c(N)c3[C@H](C1)C2`, the TGI is 31.5 µM.

As to `O=[N+]([O-])C(/C=C(\Cl)n1nnc2ccccc21)=C(/Cl)n1nnc2ccccc21`, the TGI was > 100 µM.

On to `c1c[nH]c(-c2ccc(-c3ccc[nH]3)c3nsnc23)c1`, for which the TGI is > 100 µM.

For the compound `CSC(=S)N(C)C`, the TGI was > 100 µM.

With `COc1ccc2c(c1)OCC1Cc3ccccc3OC21` (stereo not drawn), the TGI is > 100 µM.

On to `CCOC(=O)c1c(C)nc2c3ccccc3c(C#N)c(C)n12`, for which the TGI was > 100 µM.

Take `CCCCC(C(=O)NCCNC(=O)CCC(=O)N(C)O)C(=O)NCCNC(=O)CCC(=O)N(C)O`: the TGI was > 100 µM.

Consider `O=C(CC(C(=O)c1ccsc1)c1ccc2c(c1)OCO2)c1ccccc1` (stereo not drawn), for which the TGI was > 100 µM.

On to `CSc1nsc(-c2ccccc2)[s+]1`, for which the TGI was > 100 µM.

The next assay concerns SK-MEL-2 melanoma. As to the kind of experiment: inhibition of tumour cell growth, NCI panel, 48 h.
Regarding `CC1(C)CCCC2OC2CCC(C)(C)C1=O` (stereo not drawn), the TGI is > 100 µM.

For the compound `O=C1NCC2(CCN(CCCC3(c4ccc(F)cc4)OCCO3)CC2)N1c1ccccc1`, the TGI is > 100 µM.

Regarding `COc1ccc2c(c1)/C(=C\c1c(Cl)nc3sc(C)cn13)C(=O)N2`, the TGI was 8.41 µM.

As to `O=C1c2ccccc2-c2c1c(-c1ccc(F)cc1)nc1ccc3ccccc3c21`, the TGI was > 100 µM.

Turning to `O=C(/C=C/c1ccc2c(c1)OCO2)CC(=O)C(=O)c1c[nH]c2ccccc12`, the TGI is > 100 µM.

As to `O=C(Nc1nccs1)c1c(O)nc2sccn2c1=O`, the TGI is > 10 µM.

`O=c1[nH]c(=O)n(C2OC(CO)C(O)C2O)c2nc(-c3ccc(-c4ccccc4)cc3)cnc12` (stereo not drawn): the TGI is > 100 µM.

For the compound `CC1=NN(c2cccc(Cl)c2)C2(SCC(=O)N2c2nc3ccccc3s2)/C1=C\c1ccccc1O` (stereo not drawn), the TGI was determined as 44.2 µM.

As to `O=C1NCCN1/N=C/c1c(Cl)n(-c2ccccc2)c2ccccc12`, the TGI was determined as 66.4 µM.

Take `CCCCCCOc1ccc(C(=O)NOC)cc1`: the TGI was > 100 µM.

`Cc1c(S(=O)(=O)c2ccccc2)c(N)n(CCN(C)C)c1C`: the TGI is > 100 µM.

Regarding `N=C(N)SCc1ccc2c(c1)Sc1ccccc1O2`, the TGI turned out to be 15.6 µM.

In the case of `CC(=O)Nc1nc(C#N)[nH]c1C#N`, the TGI is > 100 µM.

`CN(C)c1ccc(C(=N/N=C2\C(=O)Nc3ccccc32)c2ccc(N(C)C)cc2)cc1` displayed a TGI of 2.72 µM.

For the compound `COc1ccc(-c2nc(SCC(=O)N/N=C/c3ccc(N(C)C)cc3)[nH]c2-c2ccc(OC)cc2)cc1`, the TGI is > 100 µM.

As for `CC1=C[C@@H]2Cc3nc4cc(Cl)ccc4c(N)c3[C@H](C1)C2`, the TGI was 29.7 µM.

For the compound `O=[N+]([O-])C(/C=C(\Cl)n1nnc2ccccc21)=C(/Cl)n1nnc2ccccc21`, the TGI was > 100 µM.

For the compound `c1c[nH]c(-c2ccc(-c3ccc[nH]3)c3nsnc23)c1`, the TGI was > 100 µM.

As to `CSC(=S)N(C)C`, the TGI is > 100 µM.

Take `COc1ccc2c(c1)OCC1Cc3ccccc3OC21` (stereo not drawn): the TGI was > 100 µM.

As to `CCOC(=O)c1c(C)nc2c3ccccc3c(C#N)c(C)n12`, the TGI was > 100 µM.

On to `CCCCC(C(=O)NCCNC(=O)CCC(=O)N(C)O)C(=O)NCCNC(=O)CCC(=O)N(C)O`, for which the TGI was > 100 µM.

In turn, `CC1(C)C2CCC1(C)[C@H](n1c(=O)n([C@@H]3CC4CCC3(C)C4(C)C)c(=O)n([C@@H]3CC4CCC3(C)C4(C)C)c1=O)C2` had a TGI of 72.7 µM.

On to `CSc1nsc(-c2ccccc2)[s+]1`, for which the TGI was > 100 µM.

Regarding `CC(=N/N=C/c1ccccn1)/C(C)=N/N=C(C)/C(C)=N/N=C(C)/C(C)=N/N=C(C)/C(C)=N\N=C\c1ccccn1`, the TGI was > 100 µM.

For a further assay, the system named is OVCAR-8 ovarian. Description: inhibition of tumour cell growth, NCI panel, 48 h.
In the case of `CC1(C)CCCC2OC2CCC(C)(C)C1=O` (stereo not drawn), the TGI is > 100 µM.

As to `O=C1NCC2(CCN(CCCC3(c4ccc(F)cc4)OCCO3)CC2)N1c1ccccc1`, the TGI is > 100 µM.

`COc1ccc2c(c1)/C(=C\c1c(Cl)nc3sc(C)cn13)C(=O)N2`: the TGI was 15.1 µM.

For the compound `O=C1c2ccccc2-c2c1c(-c1ccc(F)cc1)nc1ccc3ccccc3c21`, the TGI was > 100 µM.

For `O=C(/C=C/c1ccc2c(c1)OCO2)CC(=O)C(=O)c1c[nH]c2ccccc12`, the TGI was > 100 µM.

`O=C(Nc1nccs1)c1c(O)nc2sccn2c1=O`: the TGI is > 10 µM.

Turning to `O=c1[nH]c(=O)n(C2OC(CO)C(O)C2O)c2nc(-c3ccc(-c4ccccc4)cc3)cnc12` (stereo not drawn), the TGI was > 100 µM.

Take `CC1=NN(c2cccc(Cl)c2)C2(SCC(=O)N2c2nc3ccccc3s2)/C1=C\c1ccccc1O` (stereo not drawn): the TGI is 42 µM.
